Results reported in US4520022A, “Substituted vinyl cephalosporins” (priority 1983, dated 1985).
Converted amounts (≈) assume the structure as drawn. Like-named read-outs stand apart in the source and are kept apart here.

What was measured:
S. pneumoniae = test: In vitro activity against Streptococci (MIC), S. pneumoniae; assay type: cell-based; conditions: Streptococcus pneumoniae, Compound 9 lot 2
E. coli Juhl = test: Protective dose, mice infected with lethal inoculum, oral treatment, E. coli Juhl; assay type: in vivo
P. acnes A21933 = test: In vitro activity against anaerobes (MIC), P. acnes; assay type: cell-based; conditions: Cutibacterium acnes; Gp cocci; P. acnes A21933; read-out: MIC
S. pyogenes = test: In vitro activity against Streptococci (MIC), S. pyogenes; assay type: cell-based; conditions: Streptococcus pyogenes, Compound 9 lot 2
N. meningitidis = test: In vitro activity against Neisseria (MIC), N. meningitidis; assay type: cell-based
H. influenza A9729 = test: Protective dose PD50, mice infected with lethal inoculum, oral treatment, H. influenza A9729; assay type: in vivo; conditions: Mus musculus, 120 h
Description: The structure activity correlations drawn from the foregoing in vitro studies are born out by the results of in vivo studies in mice. Table 4 is a tabulation of the protective doses for mice infected with a lethal inoculum of a bacteria. Two different bacteria were employed in the studies, one a Gram+ organism and the other a Gram- organism. The protective dose (PD50) is that dose which when administered to a group of infected mice results in 50% survival after five days. Normally untreated infected mice die within three days following injection of the lethal inoculum.
Protective Dose PD50 for Mice Infected with Lethal Inoculum

H. influenzae = test: In vitro activity against Haemophilis (MIC), H. influenzae; assay type: cell-based; conditions: Haemophilus influenzae, Compound 9 lot 2
in vivo = conditions: mouse; for half-life: T1/2
P. anaerobius A21905 = test: In vitro activity against anaerobes (MIC), P. anaerobius; assay type: cell-based; conditions: Peptostreptococcus anaerobius; Gp cocci; P. anaerobius A21905; read-out: MIC
Gp, rods; Gp, cocci = test: microbe, parasite or virus in culture; assay type: cell-based, C. difficile; C. perfringens; P. acnes; P. anaerobius; conditions: read-out: MIC, Geometric Mean
[1] = mouse, in vivo
[2] = system: Gp Ib: S. aureus 193, BX-1633-2 A9606, A15092, Russell, A9602; conditions: Staphylococcus aureus
P. mirabilis A9554 = test: Protective dose PD50, mice infected with lethal inoculum, oral treatment, P. mirabilis A9554; assay type: in vivo
S. pyogenes A20201 = test: Protective dose PD50, mice infected with lethal inoculum, oral treatment, S. pyogenes A20201; assay type: in vivo; conditions: Streptococcus pyogenes, 120 h
[3] = system: Gp Ia, Gp Ib, Gn Ia organisms of Table 2; test: Test medium comparison, agar dilution MIC, Mueller-Hinton agar versus nutrient agar
S. aureus Smith = test: Protective dose, mice infected with lethal inoculum, oral treatment, S. aureus Smith; assay type: in vivo; conditions: Staphylococcus aureus, po, 120 h, oral, read-out: Protective dose (PD50), S. aureus Smith
B. fragilis = test: In vitro activity against anaerobes (MIC), B. fragilis; assay type: cell-based; conditions: Bacteroides fragilis
[4] = system: Gp Ia: S. aureus Smith A9537, A9497, Terajima, A9534, A9601; conditions: Staphylococcus aureus
C. perfringens A9645 = test: microbe, parasite or virus in culture; assay type: cell-based; conditions: Clostridium perfringens
S. aureus BX-1633 = test: Protective dose PD50, mice infected with lethal inoculum, oral treatment, S. aureus BX-1633; assay type: in vivo; conditions: Staphylococcus aureus, BX1633, 120 h
N. gonorrheae = test: In vitro activity against Neisseria (MIC), N. gonorrheae; assay type: cell-based

SMILES: C/C=C\C1=C(C(=O)O)N2C(=O)[C@@H](NC(=O)[C@H](N)c3ccc(O)cc3)[C@H]2SC1 [Compound 9, 7β-[D-2-amino-(p-hydroxyphenyl)acetamido]-3-[(Z)-1-propen-1-yl]-3-cephem-4-carboxylic Acid]
- MIC (S. pneumoniae; S. pneumoniae A9585, read-out: MIC): 0.2 µg/mL (≈ 0.514 µM)
- MIC (S. pneumoniae; S. pneumoniae A15069, read-out: MIC): 0.2 µg/mL (≈ 0.514 µM)
- MIC (S. pneumoniae; S. pneumoniae A20759, read-out: MIC): 0.2 µg/mL (≈ 0.514 µM)
- MIC (S. pneumoniae; S. pneumoniae Type I, read-out: MIC): 0.2 µg/mL (≈ 0.514 µM)
- MIC (S. pneumoniae; S. pneumoniae Type II, I, III, A9585, A15069, read-out: MIC, Geometric Mean): 0.2 µg/mL (≈ 0.514 µM)
- MIC (S. pneumoniae; S. pneumoniae Type II, read-out: MIC): 0.2 µg/mL (≈ 0.514 µM)
- MIC (S. pneumoniae; S. pneumoniae Type III, read-out: MIC): 0.2 µg/mL (≈ 0.514 µM)
- ED50 (E. coli Juhl; Escherichia coli, po, 120 h, oral, 50% survival for 5 days, groups of 5 mice, read-out: Protective dose (PD50), E. coli Juhl): 1.2 mg/kg
- activity against the Gram- infection (E. coli Juhl; in words): more active against the Gram- infection
- MIC (P. acnes A21933): 0.4 µg/mL (≈ 1.03 µM)
- MIC (S. pyogenes; S. pyogenes A9604, read-out: MIC): 0.05 µg/mL (≈ 0.128 µM)
- MIC (S. pyogenes; S. pyogenes A15040, read-out: MIC): 0.05 µg/mL (≈ 0.128 µM)
- MIC (S. pyogenes; S. pyogenes A20065, read-out: MIC): 0.05 µg/mL (≈ 0.128 µM)
- MIC (S. pyogenes; S. pyogenes A20201, read-out: MIC): 0.1 µg/mL (≈ 0.257 µM)
- MIC (S. pyogenes; S. pyogenes Dick, read-out: MIC): 0.05 µg/mL (≈ 0.128 µM)
- MIC (S. pyogenes; S. pyogenes S-23, Dick, A9604, A20065, A15040, read-out: MIC, Geometric Mean): 0.05 µg/mL (≈ 0.128 µM)
- MIC (S. pyogenes; S. pyogenes S-23, read-out: MIC): 0.05 µg/mL (≈ 0.128 µM)
- MIC (N. meningitidis; N. meningitidis A21487, Compound 9 lot 2): 0.8 µg/mL (≈ 2.05 µM)
- MIC (N. meningitidis; N. meningitidis A21496, Compound 9 lot 2): 0.8 µg/mL (≈ 2.05 µM)
- MIC (N. meningitidis; N. meningitidis A21497, Compound 9 lot 2): 0.8 µg/mL (≈ 2.05 µM)
- MIC (N. meningitidis; Neisseria meningitidis, read-out: MIC): 0.8 µg/mL (≈ 2.05 µM)
- MIC (N. meningitidis; Neisseria meningitidis, read-out: MIC, Geometric Mean): 0.8 µg/mL (≈ 2.05 µM)
- ED50 (H. influenza A9729): 1.8 mg/kg
- MIC (H. influenzae; H. influenzae A9729, read-out: MIC): 0.8 µg/mL (≈ 2.05 µM)
- MIC (H. influenzae; H. influenzae A9833, read-out: MIC): 0.8 µg/mL (≈ 2.05 µM)
- MIC (H. influenzae; H. influenzae A20177, read-out: MIC): 0.8 µg/mL (≈ 2.05 µM)
- MIC (H. influenzae; H. influenzae A20193, read-out: MIC): 0.8 µg/mL (≈ 2.05 µM)
- MIC (H. influenzae; H. influenzae A21523, read-out: MIC): 0.8 µg/mL (≈ 2.05 µM)
- MIC (H. influenzae; H. influenzae A22482, read-out: MIC): 0.8 µg/mL (≈ 2.05 µM)
- MIC (H. influenzae; H. influenzae A22483, read-out: MIC): 0.8 µg/mL (≈ 2.05 µM)
- MIC (H. influenzae; H. influenzae, seven strains above, read-out: MIC, Geometric Mean): 0.8 µg/mL (≈ 2.05 µM)
- Cmax (in vivo; im, 20 mg/kg): 28000 ng/mL
- half-life (in vivo; im, 20 mg/kg): 0.88 h
- AUC (in vivo; po, 20 mg/kg, AUC*): 26000 ng·h/mL
- Cmax (in vivo; po, 20 mg/kg): 15000 ng/mL
- half-life (in vivo; po, 20 mg/kg): 1.9 h
- AUC (in vivo; po, 100 mg/kg, AUC): 106000 ng·h/mL
- Cmax (in vivo; po, 100 mg/kg): 56000 ng/mL
- half-life (in vivo; po, 100 mg/kg): 1.9 h
- MIC (P. anaerobius A21905): 0.8 µg/mL (≈ 2.05 µM)
- MIC (Gp, rods; Gp, cocci): 0.95 µg/mL (≈ 2.44 µM)
- T1/2 ([1]; im, 20 mg/kg): 0.48
- T1/2 ([1]; po, 20 mg/kg): 1.7
- T1/2 ([1]; po, 100 mg/kg): 1.3 h
- MIC ([2]; read-out: Minimum Inhibitory Concentration Gp Ib, Mueller-Hinton agar, run 1, average of five organisms): 0.92 µg/mL (≈ 2.36 µM)
- MIC ([2]; read-out: Minimum Inhibitory Concentration Gp Ib, Mueller-Hinton agar, run 2, average of five organisms): 0.8 µg/mL (≈ 2.05 µM)
- MIC ([2]; read-out: Minimum inhibitory Concentration Gp Ib, Test Medium Comparison, A: Mueller-Hinton agar, average values): 0.92 µg/mL (≈ 2.36 µM)
- MIC ([2]; read-out: Minimum inhibitory Concentration Gp Ib, Test Medium Comparison, B: Nutrient agar, average values): 0.35 µg/mL (≈ 0.899 µM)
- Protective Dose PD50 (P. mirabilis A9554): 1.8
- ED50 (S. pyogenes A20201): 0.11 mg/kg
- difference in MIC between the two media [3]: less than three fold
- ED50 (S. aureus Smith; 50% survival for 5 days, groups of 5 mice): 0.14 mg/kg
- ED50 (S. aureus Smith; separate run of Compound 42 and BMY28100, cephalexin/cefadroxil controls not available): 0.16 mg/kg
- MIC (B. fragilis; B. fragilis A20928-1, A21900, A20935, β-lactamase (-), read-out: MIC, Geometric Mean): 3.2 µg/mL (≈ 8.22 µM)
- MIC (B. fragilis; B. fragilis A20928-1, β-lactamase (-), read-out: MIC): 0.8 µg/mL (≈ 2.05 µM)
- MIC (B. fragilis; B. fragilis A20935, β-lactamase (-), read-out: MIC): 0.8 µg/mL (≈ 2.05 µM)
- MIC (B. fragilis; B. fragilis A21900, β-lactamase (-), clindamycin resistant, read-out: MIC): 50 µg/mL (≈ 128 µM)
- MIC (B. fragilis; B. fragilis A22021, β-lactamase (+), read-out: MIC): > 100 µg/mL
- MIC (B. fragilis; B. fragilis A22053, A22021, A22693, β-lactamase (+), read-out: MIC, Geometric Mean): > 100 µg/mL
- MIC (B. fragilis; B. fragilis A22053, β-lactamase (+), read-out: MIC): 50 µg/mL (≈ 128 µM)
- MIC (B. fragilis; B. fragilis A22533, β-lactamase (+), read-out: MIC): > 100 µg/mL
- MIC (B. fragilis; B. fragilis A22693, β-lactamase (+), read-out: MIC): > 100 µg/mL
- MIC (B. fragilis; B. fragilis A22695, A22533, β-lactamase (+), read-out: MIC, Geometric Mean): > 100 µg/mL
- MIC (B. fragilis; B. fragilis A22695, β-lactamase (+), read-out: MIC): > 100 µg/mL
- MIC ([4]; read-out: Minimum Inhibitory Concentration Gp Ia, Mueller-Hinton agar, run 1, average of five organisms): 0.23 µg/mL (≈ 0.591 µM)
- MIC ([4]; read-out: Minimum Inhibitory Concentration Gp Ia, Mueller-Hinton agar, run 2, average of five organisms): 0.35 µg/mL (≈ 0.899 µM)
- MIC ([4]; read-out: Minimum inhibitory Concentration Gp Ia, Test Medium Comparison, A: Mueller-Hinton agar, average values): 0.23 µg/mL (≈ 0.591 µM)
- MIC ([4]; read-out: Minimum inhibitory Concentration Gp Ia, Test Medium Comparison, B: Nutrient agar, average values): 0.17 µg/mL (≈ 0.437 µM)
- MIC (C. perfringens A9645): 0.4 µg/mL (≈ 1.03 µM)
- ED50 (S. aureus BX-1633): 2.2 mg/kg
- MIC (N. gonorrheae; N. gonorrheae A20142, Compound 9 lot 2): 0.8 µg/mL (≈ 2.05 µM)
- MIC (N. gonorrheae; N. gonorrheae A20143, Compound 9 lot 2): 0.8 µg/mL (≈ 2.05 µM)
- MIC (N. gonorrheae; N. gonorrheae A20154, Compound 9 lot 2): 0.8 µg/mL (≈ 2.05 µM)
- MIC (N. gonorrheae; N. gonorrheae A20155, Compound 9 lot 2): 0.8 µg/mL (≈ 2.05 µM)
- MIC (N. gonorrheae; read-out: MIC): 0.8 µg/mL (≈ 2.05 µM)
- MIC (N. gonorrheae; read-out: MIC, Geometric Mean): 0.8 µg/mL (≈ 2.05 µM)
